molecular target: human Factor XIIa (Homo sapiens (Human), UniProt P00748); assay: Factor XIIa Assay; assay type: biochemical; details: purified human Factor XIIa 500 pM; substrate n-Acetyl-Lys-Pro-Arg-AFC 100 μM; pH 7.4; read-out: FXIIa IC50
Method: The effectiveness of a compound of the present invention as an inhibitor of Coagulation Factor XIIa can be determined using a relevant purified serine protease, and an appropriate synthetic substrate. The rate of hydrolysis of the chromogenic or fluorogenic substrate by the relevant serine protease was measured both in the absence and presence of compounds of the present invention. Assays were conducted at room temperature or at 37° C. […] A decrease in the rate of fluorescence change in the presence of inhibitor is indicative of enzyme inhibition. Such methods are known to one skilled in the art.
Factor XIIa activity determinations were made in 50 mM HEPES buffer containing 150 mM NaCl, 5 mM CaCl2, and 0.1% PEG 8000 (polyethylene glycol; JT Baker or Fisher Scientific) at pH 7.4. Determinations were made using purified human Factor XIIa at a final concentration of 500 pM (Sekisui Diagnostics) and the synthetic substrate, n-Acetyl-Lys-Pro-Arg-AFC, TFA salt (Sigma #C6608) at a concentration of 100 μM.
Times required to achieve equilibration between enzyme and inhibitor were determined in control experiments. Initial velocities of product formation in the absence (Vo) or presence of inhibitor (Vi) were measured. IC50 was determined as the concentration of I yielding Vi=Vo/2.

human Factor XIIa, sequence (P00748 373-615): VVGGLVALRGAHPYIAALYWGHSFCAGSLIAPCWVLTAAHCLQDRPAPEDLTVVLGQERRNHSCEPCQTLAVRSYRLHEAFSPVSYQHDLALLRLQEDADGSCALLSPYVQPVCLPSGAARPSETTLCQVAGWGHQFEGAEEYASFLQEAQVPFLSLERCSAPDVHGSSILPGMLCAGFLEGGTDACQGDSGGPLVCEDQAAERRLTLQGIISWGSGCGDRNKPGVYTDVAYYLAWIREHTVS

| Structure (SMILES) | IC50 [nM] |
| --- | --- |
| CN(C)CCCC[C@H](C(=O)N1CCN(C2=NC(C)(C)C(c3ccccc3)O2)C[C@H]1C(=O)NCc1cccc(Cl)c1)N(C)C (stereo partly drawn) [Example 139, (2S)-N-(3-chlorobenzyl)-4-(4,4-dimethyl-5-phenyl-4,5-dihydro-1,3-oxazol-2-yl)-1-(N^2,N^2,N^6,N^6-tetramethyl-D-lysyl)piperazine-2-carboxamide] | 52.4 |
| CN(C)CCCC[C@@H](NC1CCCCC1)C(=O)N1CCN(C(=O)CC2CCCC2)C[C@H]1C(=O)NCc1cccs1 [Example 99, (2S)-1-(N^2-cyclohexyl-N^6,N^6-dimethyl-D-lysyl)-4-(cyclopentylacetyl)-N-(thiophen-2-ylmethyl)piperazine-2-carboxamide] | 29.7 |
| CC(C)N[C@H](CCCCN1CCCCC1)C(=O)N1CCN(C2=NC(C)(C)C(c3ccccc3)O2)C[C@H]1C(=O)NCc1cc2cnccc2s1 (stereo partly drawn) [Example 159, (2S)-4-(4,4-dimethyl-5-phenyl-4,5-dihydro-1,3-oxazol-2-yl)-1-[N-(1-methylethyl)-6-piperidin-1-yl-D-norleucyl]-N-(thieno[3,2-c]pyridin-2-ylmethyl)piperazine-2-carboxamide] | 27.4 |
| Cc1ccc(OC(=O)N2CCN(C(=O)[C@H](N)CCCCN3CCCCC3)[C@H](C(=O)NCc3cccs3)C2)c(Cl)c1C [Example 111, 2-chloro-3,4-dimethylphenyl (3S)-4-(6-piperidin-1-yl-D-norleucyl)-3-[(thiophen-2-ylmethyl)carbamoyl]piperazine-1-carboxylate] | 5 |
| CN(C)CCCC[C@H](C(=O)N1CCN(C(=O)Cc2cccc3c2CCNC3)C[C@H]1C(=O)NCc1cccs1)N(C)C1CCC2(CC1)CCN(Cc1ccccc1)C2 (stereo partly drawn) [Example 96, (2S)-1-[N^2-(2-benzyl-2-azaspiro[4.5]dec-8-yl)-N^2,N^6,N^6-trimethyl-D-lysyl]-4-(1,2,3,4-tetrahydroisoquinolin-5-ylacetyl)-N-(thiophen-2-ylmethyl)piperazine-2-carboxamide] | 11.9 |
| C[C@@H]1N=C(N2CCN(C(=O)[C@@H](CCCCN3CCCCC3)NC3CCC(CN)CC3)[C@H](C(=O)NCc3ccc4[nH]cc(Cl)c4c3)C2)O[C@H]1c1ccccc1 (stereo partly drawn) [Example 172, (2S)-1-{N-[4-(aminomethyl)cyclohexyl]-6-piperidin-1-yl-D-norleucyl}-N-[(3-chloro-1H-indol-5-yl)methyl]-4-[(4S,5S)-4-methyl-5-phenyl-4,5-dihydro-1,3-oxazol-2-yl]piperazine-2-carboxamide] | 0.6 |
| C[C@@H]1N=C(N2CCN(C(=O)[C@H](CCCCN(C)C)NC3CCC4(CC3)CCN(Cc3ccccc3)C4)[C@H](C(=O)NCc3cccs3)C2)O[C@H]1c1ccccc1 (some centres unmarked) [Example 136] | 23.2 |
| CC1(C)N=C(N2CCN(C(=O)[C@@H](CC3CCCCC3)NC3CCCCC3)[C@H](C(=O)NCc3cccs3)C2)OC1c1ccccc1 (stereo partly drawn) [Example 137, (2S)-1-(N,3-dicyclohexyl-D-alanyl)-4-(4,4-dimethyl-5-phenyl-4,5-dihydro-1,3-oxazol-2-yl)-N-(thiophen-2-ylmethyl)piperazine-2-carboxamide] | 23.2 |
| C[C@@H]1N=C(N2CCN(C(=O)[C@@H](CCCCNS(C)(=O)=O)NC3CCC4(CC3)CCN(Cc3ccccc3)C4)[C@H](C(=O)NCc3cccs3)C2)O[C@H]1c1ccccc1 (stereo partly drawn) [Example 128, (2S)-1-[N^2-(2-benzyl-2-azaspiro[4.5]dec-8-yl)-N^6-(methylsulfonyl)-D-lysyl]-4-[(4S,5S)-4-methyl-5-phenyl-4,5-dihydro-1,3-oxazol-2-yl]-N-(thiophen-2-ylmethyl)piperazine-2-carboxamide] | 10.2 |
| C[C@@H]1N=C(N2CCN(C(=O)[C@@H](CCCCN3CCCCC3)NC3CCC(CN)CC3)[C@H](C(=O)NCc3ccc(C(N)=O)s3)C2)O[C@H]1c1ccccc1 (stereo partly drawn) [Example 177, (2S)-1-{N-[4-(aminomethyl)cyclohexyl]-6-piperidin-1-yl-D-norleucyl}-N-[(5-carbamoylthiophen-2-yl)methyl]-4-[(4S,5S)-4-methyl-5-phenyl-4,5-dihydro-1,3-oxazol-2-yl]piperazine-2-carboxamide] | 27.9 |
| CC1(C)N=C(N2CCN(C(=O)[C@H](N)CCCCN3CCCCC3)[C@H](C(=O)NCc3cccc(Cl)c3)C2)OC1c1ccccc1 (stereo partly drawn) [Example 156, (2S)-N-(3-chlorobenzyl)-4-(4,4-dimethyl-5-phenyl-4,5-dihydro-1,3-oxazol-2-yl)-1-(6-piperidin-1-yl-D-norleucyl)piperazine-2-carboxamide] | 52.3 |
| C[C@@H]1N=C(N2CCN(C(=O)[C@@H](CCCCNS(C)(=O)=O)NC3CCCCC3)[C@H](C(=O)NCc3cccs3)C2)O[C@H]1c1cccc(Cl)c1 [Example 125, (2S)-4-[(4S,5S)-5-(3-chlorophenyl)-4-methyl-4,5-dihydro-1,3-oxazol-2-yl]-1-[N^2-cyclohexyl-N^6-(methylsulfonyl)-D-lysyl]-N-(thiophen-2-ylmethyl)piperazine-2-carboxamide] | 23 |
| Cc1cccc([C@@H]2OC(N3CCN(C(=O)[C@@H](CCCCNS(C)(=O)=O)NC4CCCCC4)[C@H](C(=O)NCc4cccs4)C3)=N[C@H]2C)c1 [Example 134, (2S)-1-[N^2-cyclohexyl-N^6-(methylsulfonyl)-D-lysyl]-4-[(4S,5S)-4-methyl-5-(3-methylphenyl)-4,5-dihydro-1,3-oxazol-2-yl]-N-(thiophen-2-ylmethyl)piperazine-2-carboxamide] | 10.3 |
| COc1cc(CNC(=O)[C@@H]2CN(C(=O)Oc3cccc(CN)c3)CCN2C(=O)[C@@H](CCCCNS(C)(=O)=O)NC2CCC3(CC2)CCN(Cc2ccccc2)C3)ccc1CN (stereo partly drawn) [Example 76, 3-(aminomethyl)phenyl (3S)-3-{[4-(aminomethyl)-3-methoxybenzyl]carbamoyl}-4-[N^2-(2-benzyl-2-azaspiro[4.5]dec-8-yl)-N^6= (methylsulfonyl)-D-lysyl]piperazine-1-carboxylate] | 4.1 |
| C[C@H]1N=C(N2CCN(C(=O)[C@@H](CCCCNS(C)(=O)=O)NC3CCCCC3)[C@H](C(=O)NCc3cccs3)C2)O[C@H]1c1ccccc1 [Example 151, (2S)-1-[N^2-cyclohexyl-N^6-(methylsulfonyl)-D-lysyl]-4-[(4R,5S)-4-methyl-5-phenyl-4,5-dihydro-1,3-oxazol-2-yl]-N-(thiophen-2-ylmethyl)piperazine-2-carboxamide] | 14.2 |
| NCc1cccc(OC(=O)N2CCN(C(=O)[C@@H](CC3CCCCC3)NC3CCCCC3)[C@H](C(=O)NCc3cccs3)C2)c1Cl [Example 55, 3-(aminomethyl)-2-chlorophenyl (3S)-4-(N,3-dicyclohexyl-D-alanyl)-3-[(thiophen-2-ylmethyl)carbamoyl]piperazine-1-carboxylate] | 1.1 |
| CC[C@@H](NC1CCCCC1)C(=O)N1CCN(C(=O)Oc2ccc(C)c(C)c2Cl)C[C@H]1C(=O)NCc1ccc(CN)c(OC)c1 [Example 106, 2-chloro-3,4-dimethylphenyl (3S)-3-{[4-(aminomethyl)-3-methoxybenzyl]carbamoyl}-4-[(2R)-2-(cyclohexylamino)butanoyl]piperazine-1-carboxylate] | 6.2 |
| CN(C)CCCC[C@@H](NC1CCCCC1)C(=O)N1CCN(C2=NC(C)(C)CO2)C[C@H]1C(=O)NCc1cccs1 [Example 144, (2S)-1-(N^2-cyclohexyl-N^6,N^6-dimethyl-D-lysyl)-4-(4,4-dimethyl-4,5-dihydro-1,3-oxazol-2-yl)-N-(thiophen-2-ylmethyl)piperazine-2-carboxamide] | 29.7 |
| C[C@@H]1N=C(N2CCN(C(=O)[C@@H](CCCCNS(C)(=O)=O)NC3CCCCC3)[C@H](C(=O)NCc3cccs3)C2)O[C@H]1c1ccccc1C#N [Example 127, (2S)-4-[(4S,5S)-5-(2-cyanophenyl)-4-methyl-4,5-dihydro-1,3-oxazol-2-yl]-1-[N^2-cyclohexyl-N^6-(methylsulfonyl)-D-lysyl]-N-(thiophen-2-ylmethyl)piperazine-2-carboxamide] | 18.7 |
| CS(=O)(=O)NCCCC[C@@H](NC1CCCC1)C(=O)N1CCN(C(=O)Oc2ccc3ccccc3c2Cl)C[C@H]1C(=O)NCc1cccs1 [Example 113, 1-chloronaphthalen-2-yl (3S)-4-[N^2-cyclopentyl-N~6~-(methylsulfonyl)-D-lysyl]-3-[(thiophen-2-ylmethyl)carbamoyl]piperazine-1-carboxylate] | 8.4 |
| Cc1ccc(OC(=O)N2CCN(C(=O)[C@H](N)CCCCN(C)C)[C@H](C(=O)NCc3cccs3)C2)c(Cl)c1C [Example 98, 2-chloro-3,4-dimethylphenyl (3S)-4-(N^6,N^6-dimethyl-D-lysyl)-3-[(thiophen-2-ylmethyl)carbamoyl]piperazine-1-carboxylate] | 7.2 |
| CC(C)N[C@H](CCCCN1CCCCC1)C(=O)N1CCN(C2=N[C@@H](C)[C@H](c3ccccc3)O2)C[C@H]1C(=O)NCc1cc(F)c(CN)c(F)c1 [Example 181, (2S)-N-[4-(aminomethyl)-3,5-difluorobenzyl]-1-[N-(1-methylethyl)-6-piperidin-1-yl-D-norleucyl]-4-[(4S,5S)-4-methyl-5-phenyl-4,5-dihydro-1,3-oxazol-2-yl]piperazine-2-carboxamide] | 44.4 |
| CN(C)CCCC[C@@H](NC1CCC2(CC1)CCN(Cc1ccccc1)C2)C(=O)N1CCN(C(=O)CC2CCCC2)C[C@H]1C(=O)NCc1cccs1 (stereo partly drawn) [Example 93, (2S)-1-[N^2-(2-benzyl-2-azaspiro[4.5]dec-8-yl)-N^6,N^6-dimethyl-D-lysyl]-4-(cyclopentylacetyl)-N-(thiophen-2-ylmethyl)piperazine-2-carboxamide] | 23.5 |

Source: patent US10875851B2, “Factor XIIa inhibitors” (Merck Sharp & Dohme Corp., priority 2016, dated 2020)
